# Data from patent US8178506B2, “Oligomeric compounds and compositions for use in modulation of small non-coding RNAs” (Regulus Therapeutics Inc., priority 2003, dated 2012).
# Several values for one entry are separate records, joined by “and”; a condition that tells them apart may be missing. Equal entries are not always repeated. In the oligonucleotide strings, read from the 5' end, every base follows the letter of its sugar. An asterisk marks phosphorothioate; unmarked linkages are phosphodiester. Other units and linkages are bracketed, terminal groups are in braces. A string of capitals states the bases alone. e = 2'-O-(2-methoxyethyl) (MOE); [5mC] = 5-methylcytosine; d = 2'-deoxy (DNA)
# What was measured:
# HeLa cells = assay: Cell cycle assay in HeLa cells; format: cell-based, human; conditions: for % cells in cell cycle phase: G2/M / % cells in cell cycle phase: G1 / % cells in cell cycle phase: S / % cells in cell cycle phase: aneuploid / % cells in cell cycle phase: subG1 / % cells aneuploid / % cells in cell cycle phase G1 / % cells in cell cycle phase G2/M / % cells in cell cycle phase S / % cells in cell cycle phase subG1: HeLa cells; for % cells aneuploid / % cells in cell cycle phase G1 / % cells in cell cycle phase G2/M / % cells in cell cycle phase S / % cells in cell cycle phase subG1: relative to untreated control (UTC = 100); for phase of the cell cycle in which cells arrest or delay: HeLa
# T47D cells = assay: Caspase-3 activity assay (apoptosis) in T47D cells; conditions: for Fold Increase over UTC (caspase activity): relative to untreated control
# adipocytes = assay: Triglyceride accumulation assay in adipocytes; format: cell-based, human; conditions: preadipocytes, 250 nM, day nine
# [1] = 25 nM, 48 hours, percentage of cells in phase, average of replicates
# [2] = 50 nM, 48 hours, percentage of cells in phase, average of replicates
# [3] = 100 nM, 48 hours, percentage of cells in phase, average of replicates
# [4] = 150 nM oligomeric compound, 24 hours
# [5] = 150 nM oligomeric compound, 48 hours after treatment, relative to untreated control (UTC=100)
# [6] = 150 nM, 48 hours, percentage of cells in phase, average of replicates
substance,measurement,setting,value
328383 (eA*eG*eA*eG*eG*dG*dG*dA*dG*dA*d[5mC]*dG*dA*dG*dA*eG*e[5mC]*eA*e[5mC]*eT) [compound 328383],% cells in cell cycle phase: G2/M,"HeLa cells; 25 nM, 48 hours",18%
same,% cells in cell cycle phase: G1,HeLa cells; [1],57%
same,% cells in cell cycle phase: S,HeLa cells; [1],25%
same,% cells in cell cycle phase: aneuploid,HeLa cells; [1],12%
same,% cells in cell cycle phase: subG1,HeLa cells; [1],1.9%
same,% cells in cell cycle phase: G2/M,"HeLa cells; 50 nM, 48 hours",18%
same,% cells in cell cycle phase: G1,HeLa cells; [2],56%
same,% cells in cell cycle phase: S,HeLa cells; [2],25%
same,% cells in cell cycle phase: aneuploid,HeLa cells; [2],13%
same,% cells in cell cycle phase: subG1,HeLa cells; [2],1.3%
same,% cells in cell cycle phase: G2/M,"HeLa cells; 100 nM, 48 hours",30%
same,% cells in cell cycle phase: G1,HeLa cells; [3],36%
same,% cells in cell cycle phase: S,HeLa cells; [3],34%
same,% cells in cell cycle phase: aneuploid,HeLa cells; [3],10%
same,% cells in cell cycle phase: subG1,HeLa cells; [3],9.3%
same,% cells aneuploid,HeLa cells; [4],92% and 98%
same,% cells in cell cycle phase G1,HeLa cells; [4],55% and 63%
same,% cells in cell cycle phase G2/M,HeLa cells; [4],222% and 183%
same,% cells in cell cycle phase S,HeLa cells; [4],82% and 97%
same,% cells in cell cycle phase subG1,HeLa cells; [4],314% and 289%
same,% cells in cell cycle phase: G1,HeLa cells; [5],53% and 54%
same,% cells in cell cycle phase: G2/M,HeLa cells; [5],124% and 150%
same,% cells in cell cycle phase: S,HeLa cells; [5],217% and 178%
same,% cells in cell cycle phase: aneuploid,HeLa cells; [5],90%
same,% cells in cell cycle phase: G2/M,"HeLa cells; 150 nM, 48 hours",34%
same,% cells in cell cycle phase: G1,HeLa cells; [6],29%
same,% cells in cell cycle phase: S,HeLa cells; [6],36%
same,% cells in cell cycle phase: aneuploid,HeLa cells; [6],11%
same,% cells in cell cycle phase: subG1,HeLa cells; [6],11.8%
same,"Fold Increase over UTC (caspase-3 activity, apoptosis)","T47D cells; T47D cells, 200 nM oligomeric compound, 48 hours, experiment of Table 10",1.2 fold
328421 (antisense eG*e[5mC]*eT*eT*eA*dG*d[5mC]*dT*dG*dT*dG*dT*d[5mC]*dT*dT*eA*e[5mC]*eA*eG*e[5mC]) [compound 328421],% cells aneuploid,HeLa cells; [4],70%
same,% cells in cell cycle phase G1,HeLa cells; [4],47%
same,% cells in cell cycle phase G2/M,HeLa cells; [4],200%
same,% cells in cell cycle phase S,HeLa cells; [4],105%
same,% cells in cell cycle phase subG1,HeLa cells; [4],288%
same,% cells in cell cycle phase: G1,HeLa cells; [5],30%
same,% cells in cell cycle phase: G2/M,HeLa cells; [5],198%
same,% cells in cell cycle phase: S,HeLa cells; [5],202%
same,% cells in cell cycle phase: aneuploid,HeLa cells; [5],64%
same,% cells in cell cycle phase: subG1,HeLa cells; [5],1103%
same,Fold Increase over UTC (caspase activity),"T47D cells; T47D cells, 200 nM, 48 hours",1.2
328647 (eG*eG*eA*eG*eT*dA*dG*dA*dT*dG*dA*dT*dG*dG*dT*eT*eA*eG*e[5mC]*e[5mC]; antisense) [compound 328647],% cells aneuploid,HeLa cells; [4],140%
same,% cells in cell cycle phase G1,HeLa cells; [4],101%
same,% cells in cell cycle phase G2/M,HeLa cells; [4],119%
same,% cells in cell cycle phase S,HeLa cells; [4],92%
same,% cells in cell cycle phase subG1,HeLa cells; [4],140%
same,% cells in cell cycle phase: G1,HeLa cells; [5],69%
same,% cells in cell cycle phase: G2/M,HeLa cells; [5],118%
same,% cells in cell cycle phase: S,HeLa cells; [5],153%
same,% cells in cell cycle phase: aneuploid,HeLa cells; [5],136%
same,% cells in cell cycle phase: subG1,HeLa cells; [5],589%
same,Fold Increase over UTC (caspase activity),"T47D cells; T47D cells, 200 nM, 48 hours",0.9
"GCTGACCTTTTTGCTTCTCA (sugars from the 5' end e5 d10 e5, all phosphorothioate, methylation of C not given here) [ISIS 138648]",triglyceride accumulation,adipocytes,decreased triglyceride production
same,increase in caspase activity,T47D cells; T47D cells,41%
ISIS 328421: 5-10-5 2′-MOE gapmer PS; targets mir-30d pri-miRNA (eG*e[5mC]*eT*eT*eA*dG*d[5mC]*dT*dG*dT*dG*dT*d[5mC]*dT*dT*eA*e[5mC]*eA*eG*e[5mC]),phase of the cell cycle in which cells arrest or delay,"HeLa cells; 150 nM, 24 hours",G2/M-phase
same,phase of the cell cycle in which cells arrest or delay,"HeLa cells; 150 nM, 48 hours",S- and G2/M-phases
same,apoptosis in T47D cells,"T47D cells; caspase assay, 200 nM, conclusion from Tables 9-12",induce apoptosis
